Experimental findings from patent US20020026059A1 (priority 1995, published 2002) are described below.

Molecules are shown by their SMILES.

The first test concerns Plasmopara viticola. In words: Plasmopara test (vines)/protective. The test is classed as in vivo. The conditions noted are these: Plasmopara viticola, 144 h, protective spray, active compound concentration of 100 ppm, evaluation 6 days after inoculation, read-out: Efficacy in %, based on the untreated control. As to the method:
Plasmopara test (vines)/protective
Solvent: 4.7 parts by weight of acetone Emulsifier: 0.3 parts by weight of alkyl-aryl polyglycol ether
(§1) To produce a suitable preparation of active compound, 1 part by weight of active compound is mixed with the stated amounts of solvent and emulsifier, and the concentrate is diluted with water to the desired concentration.
To test for protective activity, young plants are sprayed with the preparation of active compound to run-off point. After the spray coating has dried on, the plants are inoculated with an aqueous suspension of spores of Plasmopara viticola and then remain in a humidity chamber at 20-22° C. and 100% relative atmospheric humidity for 1 day. The plants are subsequently placed in a greenhouse at 21° C. and 90% atmospheric humidity for […]. The plants are then moistened and placed in a humidity chamber for 1 day.
Evaluation is carried out 6 days after the inoculation. 0% means an efficacy corresponding to that of the control, whereas an efficacy of 100% means that no infestation is observed.
`Cc1noc(C)c1OS(=O)N1C(C#N)=NC2C=C3OC(F)(F)OC3=CC21` (stereo not drawn): the pest or weed control at 100 ppm came to 100%.

As to `N#Cc1nc2cc3c(cc2n1S(=O)Oc1cccs1)OC(F)(F)C(F)(F)O3` (stereo not drawn), the pest or weed control at 100 ppm amounted to 80%.

As for `COC(=O)c1sccc1OS(=O)n1c(C#N)nc2cc3c(cc21)OC(F)(F)C(F)(F)O3` (stereo not drawn), the pest or weed control at 100 ppm was found to be 100%.

As for `Cc1noc(C)c1OS(=O)n1c(C#N)nc2cc3c(cc21)OC(F)(F)C(F)(F)O3` (stereo not drawn) [drawing 367], the pest or weed control at 100 ppm is 100%.

For the compound `Cc1oncc1OS(=O)n1c(C#N)nc2cc3c(cc21)OC(F)(F)C(F)(F)O3` (stereo not drawn) [drawing 370], the pest or weed control at 100 ppm was 100%.

For `Cc1nn(C)c(Cl)c1S(=O)(=O)n1c(C#N)nc2cc3c(cc21)OC(F)(F)C(F)(F)O3` [drawing 371], the pest or weed control at 100 ppm came to 74%.

For `Cc1oncc1OS(=O)n1c(C#N)nc2cc3c(cc21)OC(F)(F)O3` (stereo not drawn) [drawing 372], the pest or weed control at 100 ppm amounted to 100%.

`Cc1noc(C)c1S(=O)(=O)n1c(C#N)nc2c(Br)cc(C(F)(F)F)cc21` [drawing 373]: the pest or weed control at 100 ppm was found to be 95%.

The test is the same for the next values; noted with them: protective spray, active compound concentration of 100 ppm, evaluation 6 days after inoculation.
In the case of `Cc1noc(C)c1OS(=O)n1c(C#N)nc2cc3c(cc21)OC(F)(F)C(F)(F)O3` (stereo not drawn) [drawing 374], the “Efficacy in %, based on the untreated control” value (from here on “Efficacy in %, based”) came to 100%.

For another test, the system named is Venturia inaequalis. In words: Venturia test (apple)/protective. The test is classed as in vivo. The conditions noted are these: apple plants, protective spray, active compound concentration of 10 ppm, evaluation 12 days after inoculation. The procedure:
Venturia test (apple)/protective
Solvent: 4.7 parts by weight of acetone Emulsifier: 0.3 parts by weight of alkylaryl polyglycol ether
as §1
To test for protective activity, young plants are sprayed with the preparation of active compound to run-off point. After the spray coating has dried on, the plants are inoculated with an aqueous suspension of conidia of the causative organism of apple scab (Venturia inaequalis) and then remain in an incubation cupboard at 20° C. and 100% relative atmospheric humidity for 1 day.
The plants are then placed in a greenhouse at 20° C. and a relative atmospheric humidity of about 70%.
Evaluation is carried out 12 days after the inoculation. 0% means an efficacy corresponding to that of the control, 100% means that no infestation is observed.
As for `CN(C)OS(=O)n1c(C#N)nc2cc3c(cc21)OC(F)(F)C(F)(F)O3` (stereo not drawn), the “Efficacy in %, based” value was determined as 43%.

In the case of `CN(C)S(=O)(=O)n1c(C#N)nc2cc3c(cc21)OC(F)(F)C(F)(F)O3` [comparison substance (A), 2-Cyano-1-dimethylaminosulphonyl-6,6,7,7-tetrafluoro-[1,4]dioxino[2,3-f]benzimidazole], the “Efficacy in %, based” value is reported as 43%.

Turning to `CN(C)OS(=O)n1c(C#N)nc2cc3c(cc21)OC(F)(F)O3` (stereo not drawn) [drawing 350], the “Efficacy in %, based” value was 0%.

In the case of `Cc1noc(C)c1S(=O)(=O)n1c(C#N)nc2cc3c(cc21)OC(F)(F)O3` [drawing 351], the “Efficacy in %, based” value was determined as 81%.

Take `Cc1noc(C)c1S(=O)(=O)n1c(C#N)nc2cc3c(cc21)OC(F)(F)C(F)(F)O3` [drawing 352]: the “Efficacy in %, based” value turned out to be 58%.

Take `N#Cc1nc2cc3c(cc2n1S(=O)(=O)c1cccs1)OC(F)(F)C(F)(F)O3` [drawing 353]: the “Efficacy in %, based” value turned out to be 87%.

The next test relates to Phytophthora infestans. Description: whole plant or invertebrate. The test is classed as in vivo. The conditions noted are these: in Solanum lycopersicum, 72 h, read-out: Efficacy in %, based on the untreated control.
Turning to `COC(=O)c1sccc1S(=O)(=O)n1c(C#N)nc2cc3c(cc21)OC(F)(F)C(F)(F)O3`, the pest or weed control at 100 ppm is 82%.

Take `Cc1nn(C)c(Cl)c1S(=O)(=O)n1c(C#N)nc2cc3c(cc21)OC(F)(F)O3`: the pest or weed control at 100 ppm came to 94%.

On to `N#Cc1nc2cc3c(cc2n1S(=O)Oc1cccs1)OC(F)(F)O3` (stereo not drawn), for which the pest or weed control at 100 ppm came to 94%.

In the case of `COC(=O)c1csc(OS(=O)n2c(C#N)nc3cc4c(cc32)OC(F)(F)O4)c1C` (stereo not drawn), the pest or weed control at 100 ppm came to 97%.

In the case of `Cc1noc(C)c1S(=O)(=O)n1c(C#N)nc2cc3c(cc21)OC(F)(F)O3` [drawing 354], the pest or weed control at 100 ppm was determined as 100%.

For `Cc1noc(C)c1S(=O)(=O)n1c(C#N)nc2cc3c(cc21)OC(F)(F)C(F)(F)O3` [drawing 355], the pest or weed control at 100 ppm is 97%.

Turning to `N#Cc1nc2cc3c(cc2n1S(=O)(=O)c1cccs1)OC(F)(F)C(F)(F)O3` [drawing 356], the pest or weed control at 100 ppm turned out to be 94%.

Turning to `Cc1oncc1OS(=O)n1c(C#N)nc2cc3c(cc21)OC(F)(F)C(F)(F)O3` (stereo not drawn) [drawing 358], the pest or weed control at 100 ppm came out at 64%.

`Cc1nn(C)c(Cl)c1S(=O)(=O)n1c(C#N)nc2cc3c(cc21)OC(F)(F)C(F)(F)O3` [drawing 359]: the pest or weed control at 100 ppm turned out to be 94%.

In the case of `Cc1oncc1OS(=O)n1c(C#N)nc2cc3c(cc21)OC(F)(F)O3` (stereo not drawn) [drawing 362], the pest or weed control at 100 ppm came out at 96%.

For the compound `Cc1noc(C)c1S(=O)(=O)n1c(C#N)nc2c(Br)cc(C(F)(F)F)cc21` [drawing 363], the pest or weed control at 100 ppm is 74%.

Regarding `Cc1noc(C)c1OS(=O)n1c(C#N)nc2cc3c(cc21)OC(F)(F)C(F)(F)O3` (stereo not drawn) [drawing 365], the pest or weed control at 100 ppm worked out at 97%.
